Measured values published in publication PMC11748689, “Pharmacological and structural understanding of the Trypanosoma cruzi proteasome provides key insights for developing site-specific inhibitors” (The Journal of Biological Chemistry, 2024).
Non-standard residues stand in square brackets, D forms with d. Residues, ends and D or L forms follow the SMILES beside them. *: point of attachment. Nva = CCC[C@H](N)C(=O)O; Cbz = O=C(OCc1ccccc1)*

Columns and labels:
Assay type in all cases: biochemical
[1] = biological target: recombinant WT T. cruzi proteasome (chymotrypsin-like activity, β5) (Trypanosoma cruzi, UniProt V5BU39+V5C017); experiment: biochemical; settings: for maximum % inhibition plateau, Chymotrypsin Assay, Wild-type: mean ± SD, N = 3 (N = 2 for DDD02091966), (a) mid-point plateau from biphasic curve fits
Procedure: (§1) Chymotrypsin-, trypsin-, and caspase-like activity assays were performed using a commercially available Proteasome-Glo 3-substrate system assay kit (catalog number G8532) (Promega Corporation) according to the manufacturers protocols and as previously described ([24]).
(§2) Prior to running assays, Proteasome-Glo buffer was used to reconstitute the luciferin detection reagent (containing a recombinant thermostable luciferase enzyme). The resuspended luciferin detection reagent was then mixed with Proteasome-Glo chymotrypsin-, trypsin- or caspase-like substrates (either 40 μM suc-Leu-Leu-Val-Tyr-aminoluciferin, 30 μM Z-Leu-Arg-Arg-aminoluciferin (Z is benzyloxycarbonyl) or 40 μM Z-Nle-Pro-Nle-Asp-aminoluciferin respectively (these concentrations represent 2x final assay concentrations)). These substrate mixtures were allowed to incubate at room temperature for 60 min prior to use to allow the removal of any contaminating free aminoluciferin.
(§3) Proteasome assays were carried out using 384-well, white, low-volume plates (catalog number 784904) (Greiner Bio-One) at room temperature (∼23 °C) in 8 μl reaction volumes. When activity checks were to be run in the presence or absence of a fixed concentration of proteasome inhibitor, 80 nL of the inhibitor (at a concentration 100x the required final assay concentration), or 80 nL dimethylsulfoxide (DMSO), were dispensed into assay plates using an Echo 550 acoustic dispenser (Labcyte).
(§4) A 1 in 2 dilution series of the various T. cruzi proteasome samples (native, recombinant WT, β4^R mutant, and Δβ1Δβ2 mutant) were produced in assay buffer (50 mM Tris–HCl, pH 7.5, 10 mM sucrose, 5 mM MgCl2, 1 mM DTT, 2 mM ATP, 150 mM NaCl, 1 mM EDTA, and 0.05 mg/ml bovine serum albumin). Subsequently, 4 μl of the various concentrations of diluted proteasome were added to assay plates using an electronic multichannel pipette (Integra Biosciences Ltd). When kinetic read activity checks were performed (Fig. 2), proteasome final assay concentrations used were 115 μg/ml, 115 μg/ml, and 230 μg/ml native proteasome (in the chymotrypsin, trypsin, and caspase assays, respectively), and 4.1 μg/ml, 3.4 μg/ml, or 1.4 μg/ml recombinant WT proteasome (in the chymotrypsin, trypsin, and caspase assays, respectively). When activity checks were to be run in the presence or absence of a proteasome inhibitor plates containing inhibitor or DMSO control were incubated with the relevant proteasome sample for 60 min at room temperature (this step was not included in activity check experiments where compounds were not used).
(§5) Following the 60 min incubation of proteasome and compound (if required), assays were initiated with the addition of 4 μl of substrate mix (containing substrate and the luciferin detection reagent) using an electronic multichannel pipette. Final assay concentrations of substrates used were either 20 μM Suc-Leu-Leu-Val-Tyr-aminoluciferin, 15 μM Z-Leu-Arg-Arg-aminoluciferin, or 20 μM Z-Nle-Pro-Nle-Asp-aminoluciferin for chymotrypsin-, trypsin- or caspase-like activity respectively.
(§6) Luminescence was read either kinetically or as an endpoint read using an EnVision 2102 Multilabel Reader (PerkinElmer, Inc) with 0.2 s per well reading time. When kinetic assays were run, luminescence was read every 5 min for 90 min. Endpoint assays were run for 60 min before luminescence was read. All data processing and linear fit analyses were performed using Microsoft Excel for Microsoft 365 software (Redmond, Washington; https://www.microsoft.com/).
(§7) When proteasome inhibitors were to be screened in the chymotrypsin, trypsin, and caspase assays, test compounds were dispensed into assay wells using an ECHO 550 acoustic dispenser (Labcyte) (final DMSO concentration 1%). Compounds were tested in either a 10-point concentration series (30 μM top final assay concentration, 1 in 3 dilution series) or a 12-point concentration series (30 μM top final assay concentration, 1 in 2.5 dilution series).

[2] = biological target: recombinant Δβ1Δβ2 mutant T. cruzi proteasome (chymotrypsin-like activity) (Trypanosoma cruzi, UniProt V5BU39+V5C017); experiment: biochemical; settings: for maximum % inhibition plateau, Chymotrypsin Assay, Δβ1Δβ2 mutant / pIC50, Chymotrypsin Assay, Δβ1Δβ2 mutant: mean ± SD, N = 3
Procedure: (§8) Point mutations were created in individual subunits using overlapping PCR from the original templates using Polh and Tn7L primers outside the genes and suitable internal primers to introduce selected mutations. For Δβ1Δβ2, β1 Thr 55, and β2 Thr 67 were both mutated to Ala, the β4^R mutant was produced by mutating Phe 24 and Ile 29 to Leu and Met respectively in β4 subunit.
as §1, §2, §3, §4, §5, §6

[3] = biological target: recombinant β4^R mutant T. cruzi proteasome (chymotrypsin-like activity) (Trypanosoma cruzi, UniProt V5BU39+V5C017, F24L/I29M); experiment: biochemical; settings: for pIC50, Chymotrypsin Assay, β4^R mutant: mean ± SD, N = 3, biphasic curves (a): pIC50 of most potent curve
Procedure: as §8, §1, §2, §3, §4, §5, §6

[4] = biological target: recombinant β4^R mutant T. cruzi proteasome (caspase-like activity) (Trypanosoma cruzi, UniProt V5BHX1); experiment: Caspase-like activity assay (Proteasome-Glo), recombinant β4^R mutant T. cruzi proteasome; settings: for pIC50, Caspase Assay, β4^R mutant: mean ± SD, N = 3
Procedure: as §8, §1, §2, §3, §4, §5, §6

[5] = biological target: recombinant WT T. cruzi proteasome (caspase-like activity, β1) (Trypanosoma cruzi, UniProt V5BHX1); experiment: Caspase-like activity assay (Proteasome-Glo), recombinant wild-type T. cruzi proteasome; settings: for pIC50, Caspase Assay, Wild-type: mean ± SD, N = 3
Procedure: as §1, §2, §7
(§9) Proteasome assays were then performed as described above using Promega Proteasome-Glo 3-substrate system assay kit. […] Diluted proteasome (4 μl) was added to assay plates using an electronic multichannel pipette (Integra Biosciences Ltd) and the proteasome incubated with compound for 60 min at room temperature.
(§10) Following the 60 min incubation of proteasome and compounds, assays were initiated with the addition of 4 μl of a substrate mix (containing substrate and the luciferin detection reagent) using an electronic multichannel pipette. Final assay concentrations of substrates used were either 20 μM Suc-Leu-Leu-Val-Tyr-aminoluciferin, 15 μM Z-Leu-Arg-Arg-aminoluciferin, or 20 μM Z-Nle-Pro-Nle-Asp-aminoluciferin for chymotrypsin-, trypsin-, or caspase-like activity, respectively. Following a further 60 min assay incubation, luminescence was read using an EnVision 2102 Multilabel Reader (PerkinElmer, Inc) with 0.2 s per well reading time.
(§11) All data processing was performed using Microsoft Excel for Microsoft 365 software.
(§12) Nonlinear dose-response curve fitting was carried out using the Microsoft Excel add-in, XLfit (IDBS). Percentage inhibition data were either fitted to a standard 4-parameter logistic fit model (XLfit model 205; Equation 2) or a biphasic model (either XLfit model 300; Equation 3 or a custom biphasic model; Equation 4 (used in cases where the top and/or bottom parameters deviated from 100%/0% inhibition)).(2) y=A+(B−A)/1+(C/x)^D Where A = % inhibition at bottom, B = % inhibition at top, C = IC50, D = slope, x = inhibitor concentration and y = % inhibition.(3) y=(A/(1+10^(C−log(x))∗B))+((100−A)/(1+10^(D−log(x))∗B)) With A = % inhibition at midplateau, B = slope, C = log(IC50^A), D = log(IC50^B)).
(§13) All IC50 data generated were converted to pIC50 using Equation 5.

[6] = biological target: native T. cruzi proteasome (caspase-like activity, β1) (Trypanosoma cruzi, UniProt V5BHX1); experiment: Caspase-like activity assay (Proteasome-Glo), native T. cruzi proteasome; settings: mean ± SD, N = 3; for IC50: read-out: pIC50, Caspase Assay, Native (converted)
Procedure: as §1, §2, §7, §9, §10, §11, §12, §13

[7] = biological target: recombinant WT T. cruzi proteasome (trypsin-like activity, β2) (Trypanosoma cruzi, UniProt V5BCU3); experiment: biochemical; settings: mean ± SD, N = 3; for IC50: read-out: pIC50, Trypsin Assay, Wild-type (converted)
Procedure: as §1, §2, §7, §9, §10, §11, §12, §13

[8] = biological target: recombinant β4^R mutant T. cruzi proteasome (trypsin-like activity) (Trypanosoma cruzi, UniProt V5BCU3); settings: mean ± SD, N = 3
Procedure: as §8, §1, §2, §3, §4, §5, §6

[9] = biological target: native T. cruzi proteasome (chymotrypsin-like activity, β5) (Trypanosoma cruzi, UniProt V5BU39+V5C017); experiment: Chymotrypsin-like activity assay (Proteasome-Glo), native T. cruzi proteasome; settings: for pIC50, Chymotrypsin Assay, Native: mean ± SD, N = 3, biphasic curves (a): pIC50 of most potent curve, 60 min preincubation
Procedure: as §1, §2, §7, §9, §10, §11, §12, §13

[10] = biological target: native T. cruzi proteasome (trypsin-like activity, β2) (Trypanosoma cruzi, UniProt V5BCU3); experiment: Trypsin-like activity assay (Proteasome-Glo), native T. cruzi proteasome; settings: mean ± SD, N = 3; for IC50: read-out: pIC50, Trypsin Assay, Native (converted)
Procedure: as §1, §2, §7, §9, §10, §11, §12, §13

CCC[C@@H](C=O)NC(=O)[C@H](CC(C)C)NC(=O)[C@H](CC(C)C)NC(=O)OCc1ccccc1 [MG115, reference compound] (Cbz-Leu-Leu-[Nva]-aldehyde)
pIC50, Chymotrypsin Assay, Wild-type [1]: 6.07 ± 0.13
maximum % inhibition plateau, Chymotrypsin Assay, Wild-type [1]: 93.3 ± 2.9%
maximum % inhibition plateau, Chymotrypsin Assay, Δβ1Δβ2 mutant [2]: 99.4 ± 1.0%
pIC50, Chymotrypsin Assay, Δβ1Δβ2 mutant [2]: 6.38 ± 0.16
pIC50, Chymotrypsin Assay, β4^R mutant [3]: 6.24 ± 0.05
pIC50, Caspase Assay, β4^R mutant [4]: 5.03 ± 0.04
pIC50, Caspase Assay, Wild-type [5]: 4.77 ± 0.07
pIC50, Caspase Assay, Native [6]: 4.79 ± 0.11
pIC50, Trypsin Assay, Wild-type [7]: 4.97 ± 0.09
pIC50, Trypsin Assay, β4^R mutant [8]: 5.24 ± 0.05
pIC50, Chymotrypsin Assay, Native [9]: 6.04 ± 0.08
pIC50, Trypsin Assay, Native [10]: 4.89 ± 0.16

CC(C)C[C@H](NC(=O)CNC(=O)c1cc(Cl)ccc1Cl)B(O)O [Ixazomib, reference compound]
IC50 [1]: 19.5 nM
maximum % inhibition plateau, Chymotrypsin Assay, Wild-type [1]: 52.7 ± 21.9^ a %
IC50 [2]: 22.9 nM
IC50 [3]: 13.2 nM
IC50 [4]: 46.8 nM
IC50 [5]: 55 nM
IC50 [6]: 44.7 nM
IC50 [7]: 6920 nM
pIC50, Trypsin Assay, β4^R mutant [8]: 5.53 ± 0.03
IC50 [9]: 35.5 nM
IC50 [10]: 8710 nM

CC[C@H](C)[C@H](NC(=O)[C@H]([C@@H](C)CC)N(C)C(C)=O)C(=O)N[C@H](C(=O)N[C@@H](CC(C)C)C(=O)[C@@]1(C)CO1)[C@@H](C)O [Epoxomicin, reference compound]
pIC50, Chymotrypsin Assay, Wild-type [1]: 7.40 ± 0.17
maximum % inhibition plateau, Chymotrypsin Assay, Wild-type [1]: 96.1 ± 3.0%
maximum % inhibition plateau, Chymotrypsin Assay, Δβ1Δβ2 mutant [2]: 100.1 ± 0.5%
pIC50, Chymotrypsin Assay, Δβ1Δβ2 mutant [2]: 7.44 ± 0.03
pIC50, Chymotrypsin Assay, β4^R mutant [3]: 7.33 ± 0.15
pIC50, Caspase Assay, β4^R mutant [4]: 5.88 ± 0.03
pIC50, Caspase Assay, Wild-type [5]: 5.97 ± 0.03
pIC50, Caspase Assay, Native [6]: 5.99 ± 0.01
pIC50, Trypsin Assay, Wild-type [7]: 6.09 ± 0.04
pIC50, Trypsin Assay, β4^R mutant [8]: 6.11 ± 0.06
pIC50, Chymotrypsin Assay, Native [9]: 7.50 ± 0.12
pIC50, Trypsin Assay, Native [10]: 6.08 ± 0.00

CC(C)C[C@H](NC(=O)[C@H](Cc1ccccc1)NC(=O)c1cnccn1)B(O)O [Bortezomib]
IC50 [4]: 93.3 nM
IC50 [5]: 72.4 nM
IC50 [6]: 72.4 nM

CC(C)C[C@@H](C=O)NC(=O)[C@H](CC(C)C)NC(=O)[C@H](CC(C)C)NC(=O)OCc1ccccc1 [MG132, carbobenzoxy-l-leucyl-l-leucyl-l-leucinal, reference compound] (Cbz-Leu-Leu-Leu-aldehyde)
IC50 [1]: 115 nM
maximum % inhibition plateau, Chymotrypsin Assay, Wild-type [1]: 66.1 ± 6.6^ a %
IC50 [2]: 91.2 nM
IC50 [3]: 60.3 nM
IC50 [4]: 3090 nM
IC50 [5]: 3310 nM
IC50 [6]: 3980 nM
IC50 [7]: 8320 nM
pIC50, Trypsin Assay, β4^R mutant [8]: 5.21 ± 0.11
IC50 [9]: 120 nM
IC50 [10]: 8910 nM

COC[C@H](NC(=O)c1cnc(C)s1)C(=O)N[C@@H](COC)C(=O)N[C@@H](Cc1ccccc1)C(=O)[C@@]1(C)CO1 [Oprozomib]
IC50 [4]: > 30200 nM
IC50 [5]: > 30200 nM
IC50 [6]: > 30200 nM
IC50 [7]: > 30200 nM
pIC50, Trypsin Assay, β4^R mutant [8]: <4.52
IC50 [10]: > 30200 nM
